Values after ≈ are worked out from the molar mass of the structure shown. Marks after values point to notes of the source that are not given here.
What was measured:
C. krusei = assay: ATP luminescence microbial cell viability assay; type: cell-based, Candida krusei; conditions: 24 h treatment, result in words
Procedure: A model from BioTek Instruments Inc. combined with a BacTiter-Glo^TM Microbial Cell Viability assay (Promega Corp., Madison, WI, USA) was used to provide a sensitive and rapid method for determining the number of viable microbial cells in culture based on quantitation of the ATP present. […] After incubation, cultures were added into the wells (final concentration of bacteria was 5 × 10^5 CFU/mL and 2.5 × 10^6 CFU/mL for yeasts). After adding the BacTiter reagent, incubation time for bacteria and yeasts was 5 min and 15 min, respectively.
The assay generates a “glow-type” luminescent signal, produced by the luciferase reaction. Briefly, after chemicals and strains were incubated for 24 h, 100 µL of the culture was taken from each well and mixed with the same volume of the BacTiter-Glo™ reagent in a white, opaque-walled microtiter plate. Control wells containing medium without cells were prepared to obtain a value for background luminescence. Cells without compound were used as an ATP-positive control. The microplates were further incubated under agitation for 7 min. Bioluminescence was recorded in a multi-detection microplate reader (BioTek Synergy 2 Multi-Mode Microplate Reader, BioTek Instruments, Winooski, VT, USA). […] Experiments were performed in triplicate and each sample was measured in four replicates.

[1] = system: A549 human lung adenocarcinoma cell line; assay: MTT assay; type: cell-based; conditions: Homo sapiens, A549
Procedure: (§1) The anticancer effects of compounds 1–10 on A549 human lung adenocarcinoma (ATCC® CCL-185™), HepG2 human hepatocellular carcinoma (ATCC® HB-8065™), and C6 rat glioma (ATCC® CCL107™) cell lines were assessed using 3-(4,5-Dimethylthiazol-2-yl)-2,5-diphenyltetrazolium bromide (MTT) assay, whereas the selectivity of compounds 1–10 was tested using NIH/3T3 mouse embryonic fibroblast cell line (ATCC® CRL-1658™, London, UK). All cell lines were incubated according to the supplier’s recommendations. The cells were seeded as 1 × 10^4 cells into each well of the 96-well plates. MTT assay was performed as previously described. The compounds were tested between the concentrations equal to 1 mM and 0.000316 mM (1.0, 0.316, 0.10, 0.0316, 0.01, 0.00316, 0.001, 0.000316 mM). Stock solutions of compounds were prepared in dimethyl sulfoxide (DMSO) and further dilutions were made with fresh culture medium. The final DMSO concentration was under 1% [34] and cisplatin was used as a positive control. Inhibition % was calculated for each concentration according to the formula below, and IC50 values were determined by plotting a dose–response curve of inhibition % versus compound concentrations tested. All experiments were performed in quadruplicate.Inhibition % = 100 − [(ODtest compound − ODblank/ODsolvent control − ODblank)] × 100(1)

C6 rat glioma cell line = assay: MTT assay; type: cell-based; conditions: Rattus norvegicus, C6
Procedure: as §1

[2] = system: HepG2 human hepatocellular carcinoma cell line; assay: MTT assay; type: cell-based; conditions: Homo sapiens, HepG2
Procedure: as §1

[3] = system: NIH/3T3 mouse embryonic fibroblast cell line; assay: MTT assay; type: cell-based; conditions: Mus musculus, NIH3T3, healthy cells for selectivity
Procedure: as §1

[4] = system: Salmonella typhimurium TA100; assay: Ames MPF mutagenicity assay; type: cell-based; conditions: for Revertants fold increase (over baseline) TA 100 S9+: with S9; for Revertants fold increase (over baseline) TA 100 S9−: without S9; for Genotoxicity classification (Ames MPF): TA100, with/without metabolic activation, 0.16-5 mg/mL
Procedure: (§2) An Ames MPF 98/100 mutagenicity assay sample kit (Xenometrix AG, Allschwil, Switzerland) was used to evaluate the genotoxicity of compounds 7 and 9 as described previously. Salmonella typhimurium TA98 (frameshift mutations) and TA100 (base-pair substitutions) strains were used and the compounds were tested in concentrations between […] and 5000 μg/mL (5.0, 2.5, 1.25, 0.625, 0.3125, 0.156 mg/mL in DMSO) in accordance with the guidelines. Mutagenity was tested with/without metabolic activation with an Aroclor™-1254 induced male Sprague–Dawley rat liver microsomal enzyme (S9) mix (Xenometrix AG, Allschwil, Switzerland). 2-Nitrofluorene (2.0 μg/mL) and 4-nitroquinoline N-oxide (0.1 μg/mL) were used without S9, and 1.0 μg/mL and 2.5 μg/mL of 2-aminoanthracene solutions were used with S9 against TA98 and TA100 as positive controls, respectively. At the end of each experiment, yellow wells were counted as positive and compared with the negative control. Fold induction over the negative control and fold induction over the baseline were calculated as described: Fold induction over the negative control is the ratio of the mean number of positive wells for the dose concentration divided by the mean number of positive wells for the zero-dose (negative) control. Fold induction over the baseline is the ratio of the mean number of positive wells for the dose concentration divided by the zero-dose baseline. The zero-dose baseline is obtained by adding one standard deviation to the mean number of positive wells of the zero-dose control. If the baseline is less than one, the value is set to one for calculation.
(§3) Genotoxicity was determined according to the previous criteria. For a baseline value of ≤3, significant increases between 2- and 3-fold of the baseline were classified as weak mutagens, and increases ≥3-fold of the baseline were classified as mutagens. For a baseline value of >3, significant increases between 1.5- and 2.5-fold of the baseline were classified as weak mutagens, and increases ≥2.5-fold of the baseline were classified as mutagens. At least two adjacent doses with significant increases, or a significant increase at the highest dose level, should be observed for a mutagenic compound. All of the doses were compared according to Student’s t-test at p < 0.05 for statistical significance.

[5] = system: Salmonella typhimurium TA98; assay: Ames MPF mutagenicity assay; type: cell-based; conditions: for Revertants fold increase (over baseline) TA 98 S9+: with S9; for Revertants fold increase (over baseline) TA 98 S9−: without S9; for Genotoxicity classification (Ames MPF): TA98, with/without metabolic activation, 0.16-5 mg/mL
Procedure: as §2, §3

Compound	antifungal activity in ATP bioluminescence assay (C. krusei)	IC50 [1] [µg/mL]	IC50 (C6 rat glioma cell line) [µg/mL]	IC50 [2] [µg/mL]	IC50 [3] [µg/mL]	Revertants fold increase (over baseline) TA 100 S9+ ([4]; 0.16 mg/mL)	Revertants fold increase (over baseline) TA 100 S9− ([4]; 0.16 mg/mL)	Revertants fold increase (over baseline) TA 100 S9+ ([4]; 0.31 mg/mL)	Revertants fold increase (over baseline) TA 100 S9− ([4]; 0.31 mg/mL)	Revertants fold increase (over baseline) TA 100 S9+ ([4]; 0.63 mg/mL)	Revertants fold increase (over baseline) TA 100 S9− ([4]; 0.63 mg/mL)	Revertants fold increase (over baseline) TA 100 S9+ ([4]; 1.25 mg/mL)	Revertants fold increase (over baseline) TA 100 S9− ([4]; 1.25 mg/mL)	Revertants fold increase (over baseline) TA 100 S9+ ([4]; 2.5 mg/mL)	Revertants fold increase (over baseline) TA 100 S9− ([4]; 2.5 mg/mL)	Revertants fold increase (over baseline) TA 100 S9+ ([4]; 5 mg/mL)	Revertants fold increase (over baseline) TA 100 S9− ([4]; 5 mg/mL)	Genotoxicity classification (Ames MPF) [4]	Revertants fold increase (over baseline) TA 98 S9+ ([5]; 0.16 mg/mL)	Revertants fold increase (over baseline) TA 98 S9− ([5]; 0.16 mg/mL)	other results
Cn1cccc1C(=O)C=Cc1ccc(-c2cc(Cl)ccc2Cl)o1 [Compound 9, 1-(1-Methyl-1H-pyrrol-2-yl)-3-(5-(2,5-dichlorophenyl)furan-2-yl)prop-2-en-1-one]	more statistically significant antifungal activity against C. krusei than ketoconazole	> 346	109 (≈ 315 µM)	101 (≈ 292 µM)	109 (≈ 315 µM)	0.51	0.48	0.73	0.54	0.68	0.54	0.68	0.54	0.79	0.30 *	0.90	0.12 *	non-genotoxic	0.51	0.89	Revertants fold increase (over baseline) TA 98 S9+ ([5]; 0.31 mg/mL): 0.79; Revertants fold increase (over baseline) TA 98 S9− ([5]; 0.31 mg/mL): 0.83; Revertants fold increase (over baseline) TA 98 S9+ ([5]; 0.63 mg/mL): 0.34 *; Revertants fold increase (over baseline) TA 98 S9− ([5]; 0.63 mg/mL): 0.89; Revertants fold increase (over baseline) TA 98 S9+ ([5]; 1.25 mg/mL): 0.39; Revertants fold increase (over baseline) TA 98 S9− ([5]; 1.25 mg/mL): 1.07; Revertants fold increase (over baseline) TA 98 S9+ ([5]; 2.5 mg/mL): 0.79; Revertants fold increase (over baseline) TA 98 S9− ([5]; 2.5 mg/mL): 0.24 *; Revertants fold increase (over baseline) TA 98 S9+ ([5]; 5 mg/mL): 0.51; Revertants fold increase (over baseline) TA 98 S9− ([5]; 5 mg/mL): 0.54; Genotoxicity classification (Ames MPF) [5]: non-genotoxic
Cn1cccc1C(=O)C=Cc1ccc(-c2ccc(Cl)cc2)o1 [Compound 7, 1-(1-Methyl-1H-pyrrol-2-yl)-3-(5-(4-chlorophenyl)furan-2-yl)prop-2-en-1-one]	more statistically significant antifungal activity against C. krusei than ketoconazole	98 (≈ 314 µM)	311 (≈ 998 µM)	23 (≈ 73.8 µM)	40 (≈ 128 µM)	0.56	0.44	0.68	0.56	0.79	0.67	0.62	0.33	0.90	0.33	0.79	0.44	non-genotoxic	0.68	0.66	Revertants fold increase (over baseline) TA 98 S9+ ([5]; 0.31 mg/mL): 0.76; Revertants fold increase (over baseline) TA 98 S9− ([5]; 0.31 mg/mL): 0.33; Revertants fold increase (over baseline) TA 98 S9+ ([5]; 0.63 mg/mL): 1.01; Revertants fold increase (over baseline) TA 98 S9− ([5]; 0.63 mg/mL): 0.44; Revertants fold increase (over baseline) TA 98 S9+ ([5]; 1.25 mg/mL): 0.68; Revertants fold increase (over baseline) TA 98 S9− ([5]; 1.25 mg/mL): 0.66; Revertants fold increase (over baseline) TA 98 S9+ ([5]; 2.5 mg/mL): 0.51; Revertants fold increase (over baseline) TA 98 S9− ([5]; 2.5 mg/mL): 0.33; Revertants fold increase (over baseline) TA 98 S9+ ([5]; 5 mg/mL): 0.25; Genotoxicity classification (Ames MPF) [5]: non-genotoxic
